From article PMC9087011 (Clinical Pharmacology and Therapeutics, 2022)

Legend:
[1] = system: SARS‐CoV‐2; conditions: oral administration; cited from earlier work
[2] = clinical; conditions: human, in vivo
[3] = system: SARS‐CoV‐2 viral replication; conditions: in vitro EC90 adjusted for plasma protein binding; cited from earlier work
[4] = 500 mg single dose, fasted, no ritonavir; individual values (N2=2)
[5] = system: cytochrome P450 3A4 (CYP3A4); conditions: cited from earlier work
[6] = Overall safety and tolerability; assay type: in vivo, human; conditions: for Safety and tolerability (overall): SAD, MAD and supratherapeutic cohorts, healthy participants

In the case of `CC(C)(C)[C@H](NC(=O)C(F)(F)F)C(=O)N1C[C@H]2[C@@H]([C@H]1C(=O)N[C@H](C#N)C[C@@H]1CCNC1=O)C2(C)C` [Nirmatrelvir], the “Effect on pulmonary viral titers” value [1] is listed as “dose‐dependent reduction of pulmonary viral titers”, the Tmax [2] is listed as 1 h and the Cmax ([2]; 150 mg) is listed as 668 ng/mL. For the same compound, the Tmax ([2]; 150 mg) was 0.634 h, the Cmax ([2]; 500 mg) was 674 ng/mL and the Tmax ([2]; 500 mg) was 1 h. For the same compound, the “total plasma EC90 (90% inhibition of SARS‐CoV‐2 viral replication)” value [3] was 0.292 µg/mL, the AUCinf [4] was 5,450 ng hour/mL and the “t ½” value [4] was 25.6 h. The Metabolism [5] was “primarily metabolized by cytochrome P450 3A4 (CYP3A4)”, the “Safety and tolerability (overall)” value [6] was “safe and well‐tolerated” and the “Safety and tolerability (overall)” value ([6]; listed as nirmatrelvir) was “no safety concerns were identified”. For the same compound, the “Changes in laboratory values (≥ grade 2), vital sign or ECG measurements” value ([6]; with or without ritonavir) was “No clinically meaningful changes”.
